Paper PMC7377239, “Cardiovascular Effects of Polychlorinated Biphenyls and Their Major Metabolites” (Environmental Health Perspectives, 2020)
Where a name gives a salt, the structure may show the parent alone. Read-outs that look alike come from different tables or passages of the source.

Tests used:
[1] = system: iCell endothelial cells (human iPSC-derived ECs); assay: Tube formation (tubulogenesis) assay in iCell endothelial cells, 18 h; type: cell-based; conditions: Homo sapiens, Endothelial cell, 18 hr; for activity at 0.1 µM: 0.10 µM
How it was run: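 Tube formation was measured by calcein AM imaging after overnight compound exposure (37°C, 0.5% DMSO vehicle) of human iPSC-derived ECs, 7,500/well, on reduced-growth-factor Geltrex in starvation medium. Vehicle-normalized data fitted to four-parameter logistic; POD set at one vehicle SD; without response, 100 μM taken as NOAEL.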

[2] = system: HUVECs; assay: High-content imaging cytotoxicity in HUVECs, 24 h; type: cell-based, human; conditions: Homo sapiens, HUVEC, 24 h; for viability at 0.01 µM / activity at 0.01 µM / viability at 0.1 µM / activity at 0.1 µM / viability at 1 µM / activity at 1 µM / viability at 10 µM / activity at 10 µM / viability at 100 µM / activity at 100 µM: 0.00 µM = 100.00; for viability at 0.1 µM / activity at 0.1 µM: 0.10 µM
How it was run: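 Point-of-departure values come from four-parameter logistic fits of vehicle-normalized (0.5% DMSO) imaging readouts, cutoff one SD of vehicle means, 100μM where no concentration–response. Cells: HUVEC monolayers, passages 1–5, treated 24 h at 37°C, 5% CO2, then Hoechst 33342/MitoTracker Orange/calcein AM stained, imaged at 10×.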

[3] = iPSC-EC tube formation, 0.00 µM control = 100.00, read-out: endo.mtl.18hr
[4] = iPSC-EC tube formation, 0.00 µM control = 100.00, read-out: endo.tlps.18hr
[5] = iPSC-EC tube formation, 0.00 µM control = 100.00, read-out: endo.tta.18hr
[6] = iPSC-EC tube formation, 0.00 µM control = 100.00, read-out: endo.ttl.18hr
[7] = HUVECs, 24 hr, read-out: huvec.cyto.24hr
[8] = HUVECs, 24 hr, read-out: huvec.mito.24hr
[9] = HUVECs, 24 hr, read-out: huvec.mitoint.24hr
[10] = HUVECs, 24 hr, read-out: huvec.nma.24hr
[11] = HUVECs, 24 hrs, read-out: huvec.tc.24hrs
[12] = endothelial cells (endo), tube formation mtl, read-out: POD endo.mtl.18hr
[13] = endothelial cells (endo), tube formation tlps, read-out: POD endo.tlps.18hr
[14] = endothelial cells (endo), tube formation tta, read-out: POD endo.tta.18hr
[15] = endothelial cells (endo), tube formation ttl, read-out: POD endo.ttl.18hr
[16] = cyto, 24 hr, read-out: POD huvec.cyto.24hr
[17] = mito, 24 hr, read-out: POD huvec.mito.24hr
[18] = mitoint, 24 hr, read-out: POD huvec.mitoint.24hr
[19] = nma, 24 hr, read-out: POD huvec.nma.24hr
[20] = tc, 24 hr, read-out: POD huvec.tc.24hr

Oc1ccc(-c2ccc(Cl)cc2)cc1 [4'-OH PCB3]
activity at 0.01 µM [1, 3]: 87.5%
activity at 0.01 µM [1, 4]: 80.1%
activity at 0.01 µM [1, 5]: 97.5%
activity at 0.01 µM [1, 6]: 93.3%
activity at 0.1 µM [1, 3]: 89.4%
activity at 0.1 µM [1, 4]: 84.6%
activity at 0.1 µM [1, 5]: 89.9%
activity at 0.1 µM [1, 6]: 86.6%
activity at 1 µM [1, 3]: 90.3%
activity at 1 µM [1, 4]: 73.5%
activity at 1 µM [1, 5]: 82.7%
activity at 1 µM [1, 6]: 81.3%
activity at 10 µM [1, 3]: 55.5%
activity at 10 µM [1, 4]: 31.4%
activity at 10 µM [1, 5]: 35.4%
activity at 10 µM [1, 6]: 35%
activity at 100 µM [1, 3]: 49.2%
activity at 100 µM [1, 4]: 11.3%
activity at 100 µM [1, 5]: 0.34%
activity at 100 µM [1, 6]: 0.48%
minimal effective concentration ([1]; iPSC-EC tube formation, top concentration 100.00 µM, read-out: endo.mtl.18hr POD): 1.21 µM
minimal effective concentration ([1]; iPSC-EC tube formation, top concentration 100.00 µM, read-out: endo.tlps.18hr POD): 0.19 µM
minimal effective concentration ([1]; iPSC-EC tube formation, top concentration 100.00 µM, read-out: endo.tta.18hr POD): 1.16 µM
minimal effective concentration ([1]; iPSC-EC tube formation, top concentration 100.00 µM, read-out: endo.ttl.18hr POD): 1.12 µM
viability at 0.01 µM [2, 7]: 86.4%
activity at 0.01 µM [2, 8]: 85.6%
activity at 0.01 µM [2, 9]: 96.8%
activity at 0.01 µM [2, 10]: 96.6%
viability at 0.1 µM [2, 7]: 96.6%
activity at 0.1 µM [2, 8]: 95.3%
activity at 0.1 µM [2, 9]: 115%
activity at 0.1 µM [2, 10]: 97.7%
viability at 1 µM [2, 7]: 97.8%
activity at 1 µM [2, 8]: 97.4%
activity at 1 µM [2, 9]: 107%
activity at 1 µM [2, 10]: 102%
viability at 10 µM [2, 7]: 92.7%
activity at 10 µM [2, 8]: 86.8%
activity at 10 µM [2, 9]: 95.9%
activity at 10 µM [2, 10]: 92.6%
viability at 100 µM [2, 7]: 73.5%
activity at 100 µM [2, 8]: 36.5%
activity at 100 µM [2, 9]: 11.1%
activity at 100 µM [2, 10]: 80.7%
minimal effective concentration ([2]; HUVECs, 24 hr, top concentration 100.00 µM, read-out: huvec.cyto.24hr POD): 7.01 µM
minimal effective concentration ([2]; HUVECs, 24 hr, top concentration 100.00 µM, read-out: huvec.mito.24hr POD): 3.9 µM
minimal effective concentration ([2]; HUVECs, 24 hr, top concentration 100.00 µM, read-out: huvec.mitoint.24hr POD): 11.2 µM
minimal effective concentration ([2]; HUVECs, 24 hr, top concentration 100.00 µM, read-out: huvec.nma.24hr POD): 6.91 µM
viability at 0.01 µM [2, 11]: 86.4%
viability at 0.1 µM [2, 11]: 96.6%
viability at 1 µM [2, 11]: 97.8%
viability at 10 µM [2, 11]: 93.3%
viability at 100 µM [2, 11]: 77.9%
minimal effective concentration ([2]; HUVECs, 24 hrs, top concentration 100.00 µM, read-out: huvec.tc.24hrs POD): 7.01 µM

COc1ccc(-c2ccc(Cl)cc2)cc1 [4'-OMe-PCB 3, 4′-methoxy-4-chlorobiphenyl]
minimal effective concentration [1, 12]: 3.4 µM
minimal effective concentration [1, 13]: 12.3 µM
minimal effective concentration [1, 14]: 7.76 µM
minimal effective concentration [1, 15]: 7.16 µM
minimal effective concentration [2, 16]: 8.6 µM
minimal effective concentration [2, 17]: 5.97 µM
minimal effective concentration [2, 18]: 32 µM
minimal effective concentration [2, 19]: 1.41 µM
minimal effective concentration [2, 20]: 8.6 µM

O=S(=O)(O)Oc1ccc(-c2ccc(Cl)cc2)cc1 [4'-PCB 3 sulfate]
minimal effective concentration [1, 12]: 4.33 µM
minimal effective concentration [1, 13]: 11.7 µM
minimal effective concentration [1, 14]: 16.8 µM
minimal effective concentration [1, 15]: 11 µM
minimal effective concentration [2, 16]: 100 µM
minimal effective concentration [2, 17]: 100 µM
minimal effective concentration [2, 18]: 100 µM
minimal effective concentration [2, 19]: 100 µM
minimal effective concentration [2, 20]: 100 µM

Oc1cc(Cl)cc(-c2cccc(Cl)c2)c1 [5-OH-PCB 11]
minimal effective concentration [1, 12]: 5.28 µM
minimal effective concentration [1, 13]: 5.71 µM
minimal effective concentration [1, 14]: 6.97 µM
minimal effective concentration [1, 15]: 7.34 µM
minimal effective concentration [2, 16]: 0.95 µM
minimal effective concentration [2, 17]: 0.84 µM
minimal effective concentration [2, 18]: 3.3 µM
minimal effective concentration [2, 19]: 1.22 µM
minimal effective concentration [2, 20]: 0.95 µM
